Measured values reported in article PMC12648443, “Modifications of NU-9, a potent protein aggregation inhibitor. Properties and activity in a cellular model of amyotrophic lateral sclerosis” (Bioorganic chemistry, 2025).

Assays:
P-gp = molecular target: T1, P-gp (Homo sapiens, UniProt P08183); assay: MDCK-MDR1 bidirectional permeability / efflux assay; type: in vitro ADME; conditions: MDCK-MDR1; for Papp A→B at 120 min / Papp B→A at 120 min / efflux ratio at 120 min: dog
T1 construct: host or cells: MDCK-MDR1 (Madin Darby canine kidney cells carrying the MDR1 gene)
Experimental: The assay was carried out at Sai Life Sciences. Stock solutions of 6, 20, assay controls loperamide, atenolol, and propanolol (4 and 20 mM), and P-gp inhibitor zosuquidar (10 mM) were prepared in DMSO. Then the stock solutions from each test compound were diluted in HBSS buffer containing 10 mM HEPES to obtain the assay working solutions without the P-gp inhibitor at 2 and 10 μM (0.1 % DMSO v/v). Into working solutions containing zosuquidar (5 μM) were individually diluted 6, 20, and loperamide to obtain working solutions containing the test compounds at 2 or 10 μM and zosuquidar at 5 μM.
The MDCK-MDR1 (Madin Darby canine kidney - Multidrug Resistance gene-1) cells were cultured in DMEM media supplemented with 10 % FBS and antibiotics. For transport studies, cells were seeded into PET trans filter membranes (Millipore #PSRP010R5; 1.0 μm pore size) at a density of 1.2 × 10^5 cells/well and colchicine was added to the flasks and plates according to their volume. After 24 h, the media were replaced by fresh media and then changed every 2 days over 8 days. The media were removed from the wells of the basal and apical compartments of the plates, and a solution of HBSS with or without zosuquidar (5 μM) was added to the apical (400 μL) and basal (800 μL) sides of the plates. The plates were pre-incubated at 37 °C for 30 min in humidified air with 5 % CO2. The TTER (Transepithelial-Transendothelial Electrical Resistance) value for each well was recorded (assay TEER >83 Ω.cm^2). The buffer was removed from both compartments, and for the apical to basal direction transport determination, the apical compartment was loaded with 400 μL of the working solutions of the tested compounds or controls (2 or 10 μM) in the presence or absence of zosuquidar (5 μM), and the basal compartment was loaded with 800 μL of HBSS (0.1 % DMSO v/v). For the basal to apical direction transport determination, the compartments were loaded in their reverse order. The assay was performed in duplicate for the two transport directions [apical to basolateral (A → B) and basolateral to apical (B → A)]. After 120 min, 100 μL samples from both the apical and basal sides of the plate were transferred to new 96-deep well plates, quenched with acetonitrile containing an internal standard, vortexed for 5 min, and then centrifuged at 4000 rpm for 10 min. The same procedure was used to prepare a 96-deep well plate containing non-assayed working solutions (t = 0 concentrations). After centrifugation, 100 μL of the supernatant of each well was transferred to a new 96-well plate, and the samples were analyzed by LC-MS/MS.
For each experiment, the apparent permeability (Papp) for each direction and the efflux ratio (ER) were determined by the equations: Papp(cm/s)=(dQ/dt)/A×Co
where dQ/dt is the rate of permeation of the tested compounds across the (0 and 120 min) after correcting for dilution; A is the area of the filter (0.7 cm^2); Co is the initial concentration of the compounds on the donor compartment.
Where P(B→A) is the apparent permeability of the compounds from the basal to the apical direction and P(A→B) is the apparent permeability from the apical to basal direction. Lucifer Yellow was used as a control of the assay to evaluate monolayer integrity after incubation with the working solutions of the compounds, and the results were validated if the permeability of Lucifer Yellow from the apical to the basal side after 1-h incubation was kept <2 %. The results are presented as an average of two independent experiments.

[1] = Parallel artificial membrane permeability assay - blood brain barrier (PAMPA-BBB); conditions: for Log Pe: PAMPA-BBB, High permeability LogPe > −5.33, No permeability LogPe < −6.14; for Papp at 18 h, 250 μM: pig, PAMPA, pH 7.5
[2] = test system: MG132-induced mutant SOD1 intracellular aggregation in PC12-SOD1^G85R YFP cells; assay: Protection against MG132-induced mut-SOD1 intracellular aggregation (fluorescence microscopy); type: cell-based; conditions: PC12-SOD1^G85R YFP cells, 0.7 μM MG132, 72 h; Inactive = no decrease of aggregates at 10 μM vs vehicle
Experimental: The PC12 Tet-Off-SOD1^G85R YFP cells were cultured in DMEM media supplemented with 10 % horse serum, 5 % Tet-approved FBS, 1 % Penstrep, 1× L-glutamine, 200 μg/mL hygromycin, 100 μg/mL G418, with 1 μg/mL Doxycycline and were incubated at 37 °C in humidified air with […] until 90–95 % confluency. To induce the expression of SOD1^G85R YFP, the Doxycycline was removed at least 4 days before the experiment. To remove the Doxycycline, the media was removed, and the cells were washed 3 times with 1xPBS. The cells were then cultured in standard culture media without Doxycycline. To set up the assay, the cells were then seeded into 96-well cell culture plates (Greiner Bio-One Catalog #655090) at a concentration of 50,000 cells/well with a final volume of 100 μL/well and incubated in the CO2 incubator at 37 °C for 24 h. The media were removed from the cells and replaced with 100 μL of media containing 0.1 % DMSO or compounds, and incubated in the CO2 incubator at 37 °C for 6 h. The media were then replaced with fresh 100 μL of media containing the diluted compounds with 0.7 μM (−)-MG-132, and the plates were incubated for 72 h under culture conditions. After 72 h, the cells were stained with Hoescht 33,342 (55 μg/mL, 10 μL/well) and imaged (lex = 358, 513 nm) using a Molecular Devices ImageXpress Micro Confocal High-Content Imaging System equipped with a 40× objective. […] Image binning was set to 2. DAPI fluorescence was captured using an exposure time of 300 ms, and FITC fluorescence was captured using an exposure time of 400 ms. A 13-plane z-series was acquired for each field of view with a step size of 3 μm. For each condition, 2 sets of 9 images were generated in a 3 × 3 grid to separately image the SOD1^G85R YFP proteins and the nuclei stained with Hoescht 33,342. Image analysis was performed with MetaXpress software (Molecular Devices) using the Transfluor module. Parameters for puncta detection (aggregates) were set with a minimum pit width of 2 μm and a maximum pit width of 5 μm. Signal intensity thresholds were defined as 700 grayscale units above the local background. The analysis provided the average area of each cell that is covered by puncta (pit/cell), which are indicated by bright green spots on the SOD1^G85RYFP image set.
The assay was performed in triplicate for each condition tested, and wells containing the media with vehicle (0.1 % DMSO) or (−)-MG-132 alone were used as controls representing the minimum and maximum aggregate formation. […] The data for EC50 determination was treated with Prism and fitted using a semi-logarithmic curve for determination of the EC50 values of NU9 and compounds 4, 6, 20 and 21.

T1 sequence (P08183 whole entry): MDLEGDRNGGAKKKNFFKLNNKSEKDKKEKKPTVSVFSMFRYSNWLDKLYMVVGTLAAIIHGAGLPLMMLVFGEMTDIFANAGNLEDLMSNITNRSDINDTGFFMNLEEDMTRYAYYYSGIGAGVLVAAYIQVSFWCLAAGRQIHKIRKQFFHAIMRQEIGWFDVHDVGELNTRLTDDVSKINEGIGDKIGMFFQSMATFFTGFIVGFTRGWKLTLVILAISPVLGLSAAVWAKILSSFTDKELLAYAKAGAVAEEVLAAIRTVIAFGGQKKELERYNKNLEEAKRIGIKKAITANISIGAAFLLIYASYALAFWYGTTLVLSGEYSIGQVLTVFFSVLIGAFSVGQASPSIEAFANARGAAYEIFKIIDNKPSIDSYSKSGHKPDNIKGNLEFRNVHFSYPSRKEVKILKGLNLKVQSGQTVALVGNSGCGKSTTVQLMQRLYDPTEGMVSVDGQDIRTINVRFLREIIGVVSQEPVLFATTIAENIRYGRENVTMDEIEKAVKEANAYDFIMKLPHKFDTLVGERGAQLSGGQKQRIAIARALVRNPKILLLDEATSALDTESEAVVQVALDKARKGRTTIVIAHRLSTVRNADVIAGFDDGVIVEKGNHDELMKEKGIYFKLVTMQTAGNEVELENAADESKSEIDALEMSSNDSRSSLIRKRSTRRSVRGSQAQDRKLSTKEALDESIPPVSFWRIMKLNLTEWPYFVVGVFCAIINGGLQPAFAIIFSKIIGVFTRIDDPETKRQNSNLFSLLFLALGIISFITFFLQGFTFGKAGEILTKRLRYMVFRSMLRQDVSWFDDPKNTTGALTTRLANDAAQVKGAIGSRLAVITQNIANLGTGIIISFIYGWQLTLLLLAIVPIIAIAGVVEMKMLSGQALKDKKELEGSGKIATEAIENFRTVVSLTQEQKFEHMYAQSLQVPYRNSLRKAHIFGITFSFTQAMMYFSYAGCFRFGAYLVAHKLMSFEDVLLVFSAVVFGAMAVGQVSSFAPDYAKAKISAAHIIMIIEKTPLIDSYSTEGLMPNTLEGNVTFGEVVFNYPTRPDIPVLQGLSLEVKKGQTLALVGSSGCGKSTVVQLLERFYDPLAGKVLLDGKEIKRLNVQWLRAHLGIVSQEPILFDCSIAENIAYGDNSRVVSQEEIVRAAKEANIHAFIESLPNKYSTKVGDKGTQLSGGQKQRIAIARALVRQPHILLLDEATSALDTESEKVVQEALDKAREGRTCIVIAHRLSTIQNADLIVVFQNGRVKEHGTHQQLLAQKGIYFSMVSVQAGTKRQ

Row | substrate for the P-gp transporter (P-gp) | Papp A→B at 120 min (P-gp) [×10⁻⁶ cm/s] | Papp B→A at 120 min (P-gp) [×10⁻⁶ cm/s] | efflux ratio at 120 min (P-gp) | Log Pe [1] | Papp at 18 h, 250 μM [1] [×10⁻⁶ cm/s] | EC50 [2] [nM] | SMILES
1 | substrates | 10.6 ± 1.28 | 24.31 ± 0.18 | 2.29 | −5.07 | 8.46 ± 0.1 | 2060 ± 240 | O=C1CC(=O)CC(/C=C/c2cc(C(F)(F)F)cc(C(F)(F)F)c2)C1 [Compound 6, (E)-5-(3,5-Bis(trifluoromethyl)styryl)cyclohexane-1,3-dione]
2 | substrates | 5.82 ± 0.06 | 14.7 ± 0.78 | 2.53 | −4.94 | 11.5 ± 0.66 | 2630 ± 270 | CC(C)(Oc1cc(C(F)(F)F)cc(C(F)(F)F)c1)C1CC(=O)CC(=O)C1 [Compound 20, 5-(2-(3,5-bis(trifluoromethyl)phenoxy)propan-2-yl)cyclohexane-1,3-dione]
